The values that follow come from patent US9526717B2, “Composition for treating immune diseases containing daurinol compound as active ingredient” (THE CATHOLIC UNIVERSITY OF KOREA INDUSTRY-ACADEMIC …, priority 2013, dated 2016).

Bounds are passed on as bounds.

In assay [1] the test system is splenocytes of the animal model with lupus. Description: IL-17 level in splenocytes of animal model with lupus (ELISA). The following applies: daurinol 1 μM and 5 μM, anti-CD3 0.5 μg/mL or LPS 100 ng/mL, three days. The class given is cell-based. As to the method:
Additionally, for the confirmation of the effect of controlling the formation of inflammatory cytokines, the splenocytes of the animal model with lupus were treated with daurinol (1 μM and 5 μM) and anti-CD3 (0.5 μg/mL) or LPS (100 ng/mL) for three days and the levels of IL-17 and TNF-α inflammatory cytokines were evaluated by ELISA assay.
Background: ELISA stands for enzyme-linked immunosorbent assay.

Assay [2] has as its system bone marrow macrophages (BMM). As to the kind of experiment: Inhibitory effect on the differentiation of osteoclasts (TRAP+ multinucleate cells). The class given is cell-based, mouse. The following applies: RANKL 50 ng/mL, M-CSF 30 ng/mL, 4 days. An excerpt: ICR mice (6 to 9 week-old male) were subjected to cervical dislocation and disinfected with 70% ethanol. The skin in the tibia area was cut off and the muscles attached thereto were detached. The distal center of tibia was cut off and tibia was ablated by dislocating patella. Both ends of the bone were slightly cut off and a 25G injection needle was indwelled therein on one end and α-MEM was flowed thereon and bone marrow cells were thereby collected into a test tube. After centrifugation, the resultant was suspended in α-MEM and red blood cells were removed by adding two volumes of Gey's solution. After centrifugation, the resultant was resuspended in α-MEM including 10% FBS and cultured to be used.
The cultured bone marrow cells were cultured overnight with macrophage colony stimulating factor (“M-CSF”, hereinafter) (10 ng/mL), and the suspension cells were cultured further with M-CSF (30 ng/mL) for 3 days, and thereby bone marrow macrophages (“BMM”) were formed. The thus-formed BMM was collected and cultured in 1×10^5 cells/well in the presence of receptor activator of NF-κB ligand (RANKL) (50 ng/mL), which is an osteoclast differentiation factor, and M-CSF (30 ng/mL) for 4 days. […] The resultant was observed under a microscope and TRAP+ cells having three or more nuclei were determined as multinucleate osteoclasts.

Assay [3] deals with animal model with graft versus host disease. Description: Therapeutic effect in animal model with graft versus host disease (GVHD). The class given is in vivo, mouse. The following applies: GVHD Balb/c recipient mice, daurinol 20 mg/kg 3 times a week, total of 9 times, vs GVHD control group. An excerpt: In order to confirm whether daurinol can be actually applied to the treatment of a different immune disease, the therapeutic effects of daurinol was examined using an animal model with graft versus host disease. First, for the construction of an animal with graft versus host disease, a recipient mouse, Balb/c(H-2k/d), was exposed to total body irradiation (TBI) (800 cGy). Then, hematopoietic stem cells and splenocytes were isolated from the femur and the tibia of the donor mouse and the hematopoietic stem cells (5×10^6 cells) and the splenocytes (1×10^6 cells) were transplanted to a recipient mouse Balb/c(H-2k/d). After the transplantation, daurinol (20 mg/kg of weight) was injected 3 times a week for a total of 9 times, and in particular, daurinol was used after dissolving in a mixed solvent (DMSO:Crernophor EL:DW=1:1:8). The experiment was performed and analyzed for the experimental groups in which each group consisted of five mice.

For assay [4], the system named is animal model with inflammatory bowel disease (IBD). As to the kind of experiment: H&E staining and TNF-α expression of large intestine tissues in IBD animal model. The class given is in vivo, mouse. Conditions: DSS-induced IBD mice, daurinol treated. An excerpt: For the confirmation of the effect of the daurinol compound of the present invention on the treatment of inflammatory bowel disease, the present inventors first constructed an animal model with induced inflammatory bowel disease. For the experimental model, C57BL/6(H-2kb) mice were used. For the construction of an animal model with induced inflammatory bowel disease, the mice were fed with 3.5% dextran sulfate sodium (DSS) and water for a week, thereby preparing an animal model with induced inflammatory bowel disease. The present inventors divided the experimental animals into a normal control group, a group of an animal model with induced inflammatory bowel disease, and a group of an animal model with induced inflammatory bowel disease treated with daurinol or a TNF-α inhibitor, and the group treated with daurinol was administered orally and intrarectally with daurinol (20 mg/kg) from the 4th day after the induction with the disease. Additionally, for the confirmation of the histological findings of the tissues in the large intestine and the expression of inflammatory cytokines, a hematoxylin and eosin (H&E) staining was performed to examine whether the damage of the tissues in the large intestine was reduced by the daurinol treatment.

The test system of assay [5] is regulatory T lymphocytes (Treg). As to the kind of experiment: Regulatory T cells (Treg) by flow cytometer in allogenic reaction. The class given is cell-based, mouse. The following applies: control not treated 7.27%. As to the method:
For the confirmation of the effect of the daurinol compound on the inhibition of T cell proliferation and the expression amount of IL-17, the CD4+ T cells (2×10^5 cells) of a normal recipient (Balb/c, responder), and the T cell-removed splenocytes (2×10^5 cells) derived from a recipient (homogenic) or the splenocytes (2×10^5 cells) derived from a donor (C57BL/6, stimulator, allogenic) exposed to irradiation were added to each well of a 96-well round bottom plate, mixed, and cultured in vitro. In particular, the T cell proliferation and the secretion of IL-17 when an allogenic reaction was untreated with daurinol or treated with daurinol at 0.5 μM, 2 μM, 10 μM, and 20 μM, respectively, were observed.
In this regard, for the confirmation of the effect of the daurinol compound according to the present invention on the activity of regulatory T lymphocytes (Treg), the present inventors analyzed the T cells isolated in Example <4-2> by a flow cytometer. That is, the T cells isolated in Example <4-2> were collected, washed with the FACs buffer, and reacted at 4° C. for the blocking of nonspecific binding for 5 minutes, and washed with the FACs buffer. […] Upon staining of the cells, the cells were washed with buffer and analyzed using the fluorescent-activated cell sorter (FACs).

In assay [6] the test system is splenocytes of an animal model with lupus. Description: IgG antibody formation in splenocytes of animal model with lupus (ELISA). The following applies: daurinol 1 μM and 5 μM, LPS 100 ng/mL, three days. The class given is cell-based. As to the method: First, regarding the effect of controlling the autoantibody formation, the splenocytes of an animal model with lupus were treated with daurinol (1 μM and 5 μM) and LPS (100 ng/mL) for three days and the levels of IgG antibodies expressed thereof were evaluated by ELISA assay.

In assay [7] the test system is animal model with a collagen induced arthritis (CIA). Description: Evaluation of arthritis index in animal model with collagen induced arthritis. The class given is in vivo, mouse. Conditions: CIA DBA/1J mice, daurinol 20 mg/kg intravenously, total of 9 times, observed until 7th week.

Regarding `COc1cc2c(-c3ccc4c(c3)OCO4)c3c(cc2cc1O)COC3=O` [daurinol], in assay [1], the “expression of IL-17 (ELISA)” value was “inhibited the expression of IL-17 and TNF-α in a dose-dependent manner”. The “differentiation of osteoclasts reduced by (number of TRAP+ multinucleate cells)” value in assay [2] (daurinol 2 μM) is at least 60%. In assay [2] (daurinol 10 μM), the “differentiation of osteoclasts (number of TRAP+ multinucleate cells)” value was “no differentiation of osteoclasts was observed”. In addition, in assay [3], the degree of disease result is “improvement in the degree of disease” and the degree of survival entry was “maintenance of the degree of survival for 30 days”. In addition, in assay [4], the “damage of the tissues in the large intestine (H&E staining)” value was “decrease in the intestinal tissue damage” and the “expression of TNF-α in large intestine tissues” value was “significantly inhibits”. In assay [5] (daurinol 1 μM), this molecule displayed a Treg cells of 9.18%. The Treg cells in assay [5] (daurinol 5 μM) worked out at 16.6%. Besides, in assay [6], the “formation of IgG antibodies (ELISA)” value is reported as “inhibited the formation of IgG antibodies in a dose-dependent manner”. For the same molecule, the arthritis index result in assay [7] is “almost no increase in arthritis index”.
